Assay results taken from article PMC4551558, “Differential inhibition of PDKs by phenylbutyrate and enhancement of pyruvate dehydrogenase complex activity by combination with dichloroacetate” (Journal of Inherited Metabolic Disease, 2015).

Assays:
PDK1 = PDK1 (Homo sapiens, UniProt Q15118); experiment: […]-phosphate incorporation into recombinant E1alpha by recombinant human PDK1; Lineweaver-Burk kinetics; type: biochemical; conditions: read-out: Ki (phenylbutyrate)
PDK3 = PDK3 (Homo sapiens, UniProt Q15120); experiment: […]-phosphate incorporation into recombinant E1alpha by recombinant human PDK3; Lineweaver-Burk kinetics; type: biochemical; conditions: read-out: Ki (phenylbutyrate)
Chain of PDK3 (Q15120 whole entry): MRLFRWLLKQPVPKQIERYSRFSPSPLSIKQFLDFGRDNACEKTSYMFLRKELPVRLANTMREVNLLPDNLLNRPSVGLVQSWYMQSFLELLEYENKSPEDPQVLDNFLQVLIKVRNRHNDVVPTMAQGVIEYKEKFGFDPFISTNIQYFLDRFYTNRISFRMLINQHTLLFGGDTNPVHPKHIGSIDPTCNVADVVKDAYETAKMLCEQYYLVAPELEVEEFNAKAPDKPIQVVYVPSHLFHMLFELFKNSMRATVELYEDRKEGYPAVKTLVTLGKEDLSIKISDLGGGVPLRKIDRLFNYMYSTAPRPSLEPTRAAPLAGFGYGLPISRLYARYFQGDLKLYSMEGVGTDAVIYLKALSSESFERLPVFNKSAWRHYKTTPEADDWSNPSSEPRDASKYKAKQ
Chain of PDK3 (P08559 30-390 partner): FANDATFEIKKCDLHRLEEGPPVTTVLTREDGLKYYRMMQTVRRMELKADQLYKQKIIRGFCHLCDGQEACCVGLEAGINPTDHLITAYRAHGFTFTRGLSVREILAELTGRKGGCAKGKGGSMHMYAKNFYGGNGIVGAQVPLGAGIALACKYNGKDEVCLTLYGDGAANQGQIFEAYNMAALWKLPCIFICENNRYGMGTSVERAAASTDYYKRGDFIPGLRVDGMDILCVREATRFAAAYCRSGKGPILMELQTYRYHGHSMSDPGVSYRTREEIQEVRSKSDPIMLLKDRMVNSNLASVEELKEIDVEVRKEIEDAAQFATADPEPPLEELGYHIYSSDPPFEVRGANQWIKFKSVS

Chain of PDK1 (Q15118 29-436): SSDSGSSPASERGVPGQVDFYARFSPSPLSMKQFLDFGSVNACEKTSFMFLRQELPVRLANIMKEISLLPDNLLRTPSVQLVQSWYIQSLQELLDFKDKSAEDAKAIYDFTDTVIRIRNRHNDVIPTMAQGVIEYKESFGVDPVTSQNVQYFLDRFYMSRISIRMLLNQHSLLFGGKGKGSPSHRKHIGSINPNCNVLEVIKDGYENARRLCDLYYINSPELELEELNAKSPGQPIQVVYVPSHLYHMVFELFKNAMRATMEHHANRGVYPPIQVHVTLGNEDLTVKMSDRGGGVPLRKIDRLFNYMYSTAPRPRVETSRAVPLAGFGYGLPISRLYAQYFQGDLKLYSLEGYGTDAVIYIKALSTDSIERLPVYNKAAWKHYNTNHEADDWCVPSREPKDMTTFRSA
Chain of PDK1 (P08559 30-390 partner): as the sequence (P08559 30-390 partner) above

## O=C(O)CCCc1ccccc1 [PB, phenylbutyrate]
PDK1
  Ki: 7.1 ± 0.15 mM
PDK3
  Ki: 0.98 ± 0.19 mM
